{
  "source": "patent US20230045421A1",
  "about": "(priority 2018, published 2023)",
  "data": [
    {"test_system": "HBV rcDNA", "assay": "HepDE19 assay with bDNA quantitation of HBV rcDNA", "assay_type": "cell-based, hepatitis B virus", "details": "HepDE19 assay, inhibition of formation of rcDNA; read-out: DE-19bDNA EC50", "summary_of_the_method": "(§1)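 HepDE19 cells (HepG2-derived, Tet-regulated HBV replication) were deprived of tetracycline and then exposed to compounds for 7 days at 37 °C in 0.5% DMSO, 8-point titration from 25 μM. rcDNA was quantified by bDNA and EC50/EC90 came from 4-parameter fits. CC50 was measured by CellTiter-Glo ATP content on replicate plates after 4 days.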", "units": {"EC50": "µM"}, "values": [
      {"compound": "CCN(C(=O)Nc1ccc(F)c(Cl)c1)C(C)c1c[nH]c(=O)c2ccccc12", "note": "(single isomer, unassigned) [Compound 24, 3-(3-Chloro-4-fluorophenyl)-1-ethyl-1-(1-(1-oxo-1,2-dihydroisoquinolin-4-yl)ethyl)urea]", "EC50": 3.2},
      {"compound": "CC(c1c[nH]c(=O)c2ccccc12)N(C[C@@H](C)O)C(=O)Nc1ccc(F)c(Cl)c1", "note": "(single isomer, unassigned) [Compound 216]", "EC50": 0.09},
      {"compound": "CC(c1c[nH]c(=O)c2c(Cl)cccc12)N(C)C(=O)Nc1ccc(F)c(Cl)c1", "note": "(single isomer, unassigned) [Compound 167, 1-(1-(8-Chloro-1-oxo-1,2-dihydroisoquinolin-4-yl)ethyl)-3-(3-chloro-4-fluorophenyl)-1-methylurea]", "EC50": 2.4},
      {"compound": "CC(c1c[nH]c(=O)c2ccccc12)N(C(=O)Nc1ccc(F)c(Cl)c1)C1CC1", "note": "(single isomer, unassigned) [Compound 67, 3-(3-Chloro-4-fluorophenyl)-1-cyclopropyl-1-(1-(1-oxo-1,2-dihydroisoquinolin-4-yl)ethyl)urea]", "EC50": 7.9},
      {"compound": "CCN(C(=O)Nc1ccc(F)c(Cl)c1)C(c1ccccc1)c1cnc(OC)c2ccccc12", "note": "(single isomer, unassigned) [Compound 59, 3-(3-Chloro-4-fluorophenyl)-1-ethyl-1-((1-methoxyisoquinolin-4-yl)(phenyl)methyl)urea]", "EC50": 22},
      {"compound": "CCN(C(=O)Nc1ccc(F)c(Cl)c1)C(C)c1c[nH]c(=O)c2ccccc12", "note": "(single isomer, unassigned) [Compound 25, 3-(3-Chloro-4-fluorophenyl)-1-ethyl-1-(1-(1-oxo-1,2-dihydroisoquinolin-4-yl)ethyl)urea]", "EC50": 0.02},
      {"compound": "CC(c1cnc(NCc2cn[nH]n2)c2ccccc12)N(C)C(=O)Nc1ccc(F)c(Cl)c1", "note": "(single isomer, unassigned) [Compound 261, 1-(1-(1-(((2H-1,2,3-Triazol-4-yl)methyl)amino)isoquinolin-4-yl)ethyl)-3-(3-chloro-4-fluorophenyl)-1-methylurea]", "EC50": 6.1},
      {"compound": "CC(c1cnc(OCc2nc[nH]n2)c2ccccc12)N(CCCO)C(=O)Nc1ccc(F)c(Cl)c1", "note": "(single isomer, unassigned) [Compound 260, 1-(1-(1-((1H-1,2,4-Triazol-3-yl)methoxy)isoquinolin-4-yl)ethyl)-3-(3-chloro-4-fluorophenyl)-1-(3-hydroxypropyl)urea]", "EC50": 0.019}
    ]},
    {"test_system": "HBV rcDNA", "assay": "HepDE19 assay with bDNA quantitation of HBV rcDNA", "assay_type": "cell-based, hepatitis B virus", "details": "HepDE19 assay, inhibition of formation of relaxed circular DNA (rcDNA), bDNA quantitation; read-out: DE-19bDNA EC50", "summary_of_the_method": "as §1", "units": {"EC50": "µM"}, "values": [
      {"compound": "CC(c1c[nH]c(=O)c2ccccc12)N(Cc1ccncn1)C(=O)Nc1ccc(F)c(Cl)c1", "note": "(single isomer, unassigned) [Compound 321, 3-(3-Chloro-4-fluorophenyl)-1-(1-(1-oxo-1,2-dihydroisoquinolin-4-yl)ethyl)-1-(pyrimidin-4-ylmethyl)urea]", "EC50": 19},
      {"compound": "CC(c1c[nH]c(=O)c2cc(F)c(F)cc12)N(C)C(=O)NCc1cc(F)c(F)c(F)c1", "note": "(single isomer, unassigned) [Compound 482, 1-(1-(6,7-Difluoro-1-oxo-1,2-dihydroisoquinolin-4-yl)ethyl)-1-methyl-3-(3,4,5-trifluorobenzyl)urea]", "EC50": 11},
      {"compound": "CCN(C(=O)Nc1ccc(F)c(Cl)c1)C(C)c1c[nH]c(=O)c2c(F)c(F)ccc12", "note": "(single isomer, unassigned) [Compound 469, 3-(3-Chloro-4-fluorophenyl)-1-(1-(7,8-difluoro-1-oxo-1,2-dihydroisoquinolin-4-yl)ethyl)-1-ethylurea]", "EC50": 0.005},
      {"compound": "CC(c1c[nH]c(=O)c2c(F)c(F)ccc12)N(C)C(=O)NCc1ccc(F)cc1", "note": "(single isomer, unassigned) [Compound 492, 1-(1-(7,8-Difluoro-1-oxo-1,2-dihydroisoquinolin-4-yl)ethyl)-3-(4-fluorobenzyl)-1-methylurea]", "EC50": 0.84},
      {"compound": "CC(c1c[nH]c(=O)c2c(F)c(F)ccc12)N(CCS(N)(=O)=O)C(=O)Nc1ccc(F)c(Cl)c1", "note": "(single isomer, unassigned) [Compound 391, 2-(3-(3-Chloro-4-fluorophenyl)-1-(1-(7,8-difluoro-1-oxo-1,2-dihydroisoquinolin-4-yl)ethyl)ureido) ethane-1-sulfonamide]", "EC50": 2.9},
      {"compound": "CC(c1c[nH]c(=O)c2ccccc12)N(Cc1ccccn1)C(=O)Nc1ccc(F)c(Cl)c1", "note": "(single isomer, unassigned) [Compound 304, 3-(3-Chloro-4-fluorophenyl)-1-(1-(1-oxo-1,2-dihydroisoquinolin-4-yl)ethyl)-1-(pyridin-2-ylmethyl) urea]", "EC50": 9.6},
      {"compound": "CC(c1c[nH]c(=O)c2cc(F)c(F)cc12)N(C)C(=O)Nc1ccc(F)c(F)c1", "note": "(single isomer, unassigned) [Compound 409, 1-(1-(6,7-Difluoro-1-oxo-1,2-dihydroisoquinolin-4-yl)ethyl)-3-(3,4-difluorophenyl)-1-methylurea]", "EC50": 0.013}
    ]},
    {"test_system": "HBV rcDNA", "assay": "HepDE19 assay with bDNA quantitation of HBV rcDNA", "assay_type": "cell-based, hepatitis B virus", "details": "Hepatitis B virus, HepDE19, HepDE19 assay, inhibition of formation of rcDNA; read-out: DE-19bDNA EC50", "summary_of_the_method": "as §1", "units": {"EC50": "µM"}, "values": [
      {"compound": "CC(c1c[nH]c(=O)c2ccccc12)N(C[C@H]1CC[C@@H](O)CC1)C(=O)Nc1ccc(F)c(Cl)c1", "note": "(mixture of isomers) [Compound 225, cis-3-(3-Chloro-4-fluorophenyl)-1-((4-hydroxycyclohexyl)methyl)-1-(1-(1-oxo-1,2-dihydroisoquinolin-4-yl)ethyl)urea]", "EC50": 0.08},
      {"compound": "CC(C)N(Cc1c[nH]c(=O)c2ccccc12)C(=O)Nc1ccc(F)c(Cl)c1", "note": "[Compound 26, 3-(3-Chloro-4-fluorophenyl)-1-isopropyl-1-((1-oxo-1,2-dihydroisoquinolin-4-yl)methyl)urea]", "EC50": 0.43},
      {"compound": "CNC(=O)CCN(C(=O)Nc1ccc(F)c(Cl)c1)C(C)c1c[nH]c(=O)c2ccccc12", "note": "(racemic) [Compound 104, 3-(3-(3-chloro-4-fluorophenyl)-1-(1-(1-oxo-1,2-dihydroisoquinolin-4-yl)ethyl)ureido)-N-methylpropanamide]", "EC50": 0.57},
      {"compound": "CCN(C(=O)Nc1ccc(F)c(Cl)c1)C(c1cnc(OC)c2ccccc12)C(C)C", "note": "(single isomer, unassigned) [Compound 44, 3-(3-Chloro-4-fluorophenyl)-1-ethyl-1-(1-(1-methoxyisoquinolin-4-yl)-2-methylpropyl)urea]", "EC50": 25},
      {"compound": "CCCCN(Cc1c[nH]c(=O)c2ccccc12)C(=O)Nc1ccc(F)c(Cl)c1", "note": "[Compound 52, 1-Butyl-3-(3-chloro-4-fluorophenyl)-1-((1-oxo-1,2-dihydroisoquinolin-4-yl)methyl)urea]", "EC50": 0.08},
      {"compound": "CC(NC(=O)Nc1ccc(F)c(Cl)c1)c1c[nH]c(=O)c2ccccc12", "note": "(single isomer, unassigned) [Compound 10, 1-(3-Chloro-4-fluorophenyl)-3-(1-(1-oxo-1,2-dihydroisoquinolin-4-yl)ethyl)urea]", "EC50": 3.4}
    ]},
    {"test_system": "HBV rcDNA", "assay": "HepDE19 assay with bDNA quantitation of HBV rcDNA", "assay_type": "cell-based, hepatitis B virus", "details": "Hepatitis B virus, HepDE19, HepDE19 assay, inhibition of formation of relaxed circular DNA (rcDNA), bDNA quantitation; read-out: DE-19bDNA EC50", "summary_of_the_method": "as §1", "units": {"EC50": "µM"}, "values": [
      {"compound": "CC(C)CN(C(=O)Nc1ccc(F)c(Cl)c1)C(C)c1cnc(-n2cncn2)c2ccccc12", "note": "(racemic) [Compound 300, 1-(1-(1-(1H-1,2,4-triazol-1-yl)isoquinolin-4-yl)ethyl)-3-(3-chloro-4-fluorophenyl)-1-isobutylurea]", "EC50": 0.02}
    ]},
    {"test_system": "HBV rcDNA", "assay": "HepDE19 assay with bDNA quantitation of HBV rcDNA", "assay_type": "cell-based, hepatitis B virus", "details": "Hepatitis B virus, HepDE19, read-out: DE-19bDNA EC50 (μM), HepDE19 assay, inhibition of formation of rcDNA", "summary_of_the_method": "as §1", "units": {"EC50": "µM"}, "values": [
      {"compound": "C[C@H](c1c[nH]c(=O)c2ccccc12)N(C)C(=O)Nc1ccc(F)c(C#N)c1", "note": "[Compound 98, (R)-3-(3-Cyano-4-fluorophenyl)-1-methyl-1-(1-(1-oxo-1,2-dihydroisoquinolin-4-yl)ethyl)urea]", "EC50": 0.16}
    ]},
    {"test_system": "HBV rcDNA", "assay": "HepDE19 assay with bDNA quantitation of HBV rcDNA", "assay_type": "cell-based, hepatitis B virus", "details": "Hepatitis B virus, HepDE19, read-out: DE-19bDNA EC50 (μM), HepDE19 assay, inhibition of formation of relaxed circular DNA (rcDNA), bDNA quantitation", "summary_of_the_method": "as §1", "units": {"EC50": "µM"}, "values": [
      {"compound": "CC(c1c[nH]c(=O)c2cc(F)c(F)cc12)N(C)C(=O)N[C@H](C)c1ccccc1", "note": "(single isomer, unassigned) [Compound 479]", "EC50": 9.4},
      {"compound": "C[C@H](c1c[nH]c(=O)c2ccccc12)N(C)C(=O)Nc1ccc(Cl)cc1", "note": "[Compound 293, (R)-3-(4-Chlorophenyl)-1-methyl-1-(1-(1-oxo-1,2-dihydroisoquinolin-4-yl)ethyl)urea]", "EC50": 0.34}
    ]},
    {"test_system": "HBV rcDNA", "assay": "HepDE19 assay with bDNA quantitation of HBV rcDNA", "assay_type": "cell-based, hepatitis B virus", "details": "read-out: DE-19bDNA EC50; HepDE19 assay, inhibition of formation of rcDNA", "summary_of_the_method": "as §1", "units": {"EC50": "µM"}, "values": [
      {"compound": "COCCN(C(=O)Nc1ccc(F)c(Cl)c1)C(C)c1c[nH]c(=O)c2ccccc12", "note": "(single isomer, unassigned) [Compound 65, 3-(3-Chloro-4-fluorophenyl)-1-(2-methoxyethyl)-1-(1-(1-oxo-1,2-dihydroisoquinolin-4-yl)ethyl)urea]", "EC50": 10},
      {"compound": "CCC(c1c[nH]c(=O)c2ccccc12)N(CC)C(=O)Nc1ccc(F)c(Cl)c1", "note": "(single isomer, unassigned) [Compound 39, 3-(3-Chloro-4-fluorophenyl)-1-ethyl-1-(1-(1-oxo-1,2-dihydroisoquinolin-4-yl)propyl)urea]", "EC50": 14}
    ]},
    {"test_system": "HBV rcDNA", "assay": "HepDE19 assay with bDNA quantitation of HBV rcDNA", "assay_type": "cell-based, hepatitis B virus", "details": "read-out: DE-19bDNA EC50; HepDE19 assay, inhibition of formation of relaxed circular DNA (rcDNA), bDNA quantitation", "summary_of_the_method": "as §1", "units": {"EC50": "µM"}, "values": [
      {"compound": "CC(c1c[nH]c(=O)c2cc(F)c(F)cc12)N(C)C(=O)Nc1cccc(F)c1", "note": "(single isomer, unassigned) [Compound 411, 1-(1-(6,7-Difluoro-1-oxo-1,2-dihydroisoquinolin-4-yl)ethyl)-3-(3-fluorophenyl)-1-methylurea]", "EC50": 0.037},
      {"compound": "CC(c1c[nH]c(=O)c2cc(F)c(F)cc12)N(C)C(=O)Nc1ccc(Cl)cc1", "note": "(single isomer, unassigned) [Compound 401, 3-(4-Chlorophenyl)-1-(1-(6,7-difluoro-1-oxo-1,2-dihydroisoquinolin-4-yl)ethyl)-1-methylurea]", "EC50": 0.09},
      {"compound": "CC(c1c[nH]c(=O)c2cc(F)c(F)cc12)N(C)C(=O)Nc1cc(Cl)cc(Cl)c1", "note": "(single isomer, unassigned) [Compound 416, 3-(3,5-Dichlorophenyl)-1-(1-(6,7-difluoro-1-oxo-1,2-dihydroisoquinolin-4-yl)ethyl)-1-methylurea]", "EC50": 10}
    ]}
  ]
}
